Laboratory results as given in publication PMC3169398 (Acta Crystallographica Section F: Structural Biology and …, 2011).

Legend:
[1] = target: T1, Bp PPAT (tagged, MAHHHHHHMGTLEAQTQGPGS-ORF) (Burkholderia pseudomallei, UniProt Q3JW91); conditions: pH 4.6, 0.2 M ammonium sulfate, PEG 2000 MME; 1 mM coenzyme A added; active site; moiety of hydrolysed or disordered coenzyme A; weak density, adenine possibly partially occupied; may be part of disor
T1 construct: gene coaD

[2] = target: T2, Bp PPAT (tagless, GPGS-ORF) (Burkholderia pseudomallei, UniProt Q3JW91); conditions: 2.0 M ammonium sulfate; 10 mM ATP added to protein; ligand carried over from E. coli host; active site; occupancy 0.5
T2 construct: gene coaD
T2 sequence (Q3JW91 whole entry, looked up): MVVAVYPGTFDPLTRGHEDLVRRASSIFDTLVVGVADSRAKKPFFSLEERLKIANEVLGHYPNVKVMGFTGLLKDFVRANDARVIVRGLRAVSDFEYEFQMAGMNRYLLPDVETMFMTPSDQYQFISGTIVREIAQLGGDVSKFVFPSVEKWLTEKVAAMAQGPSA

T1 sequence (Q3JW91 whole entry, looked up): as above

SMILES	X-ray crystal structure, 1.6 Å [1]	X-ray crystal structure, 2.1 Å [2]
Nc1ncnc2[nH]cnc12 [adenine]	We noted modest omit electron density for the adenine ring, which was also modelled	
CC(C)(COP(=O)(O)OP(=O)(O)OC[C@H]1O[C@@H](n2cnc3c(N)ncnc32)[C@H](O)[C@@H]1O)[C@@H](O)C(=O)NCCC(=O)NCCS [dephospho-coenzyme A]		clear evidence but weak electron density for dephospho-coenzyme A in the active site
